Consider twelve molecules from patent publication US4061777A, “Vasodilatory terpeno-phenoxyalkylamines” (Mar-Pha, Societe d'Etudeet d'Exploitation de Marques Mar-Pha, priority 1974, dated 1977).

What is called MIC is the smallest concentration in the dilution series that meets the test's criterion for growth inhibition. Read a low MIC as a more susceptible organism.

≈ marks a conversion by molar mass, not a printed value.

The test system of one assay is Staphylococcus aureus. The assay is described as follows: Bacteriostatic activity by the method of streaks in gelose media (minimum inhibitory concentration), Staphylococcus aureus. The conditions noted are these: Staphylococcus aureus (gram +ve). Format: cell-based. As to the method:
(§1) The bacteriostatic activity of the products according to the invention have been evaluated by the method of streaks in gelose media. This method comprises making increasing dilutions of the product to be tested, in nutritive gels poured in a Petri dish. The bacteria to be studied are introduced onto the geloses in parallel streaks by means of a platinum loop which has been immersed in a 24 hour old culture of the bacteria. […] The activity of the compounds has been studied vis a vis gram + ve (Staphylococcus aureus) and gram - ve (Escherichia coli) bacteria.

Assay [1] has as its system heart taken from a rabbit. The assay is described as follows: Coronaro-dilatory effects in vitro on isolated rabbit heart (Langendorff's technique). Particulars: for Coronary output, Duration in mins.: duration of the variation in coronary output. As to the method: They were measured in vitro on a heart taken from a rabbit, according to Langendorff's technique. The terpenophenoxy alkylamines according to the invention are administered to the aortic canal at a constant volume of 1 cm^3 for 1 minute.
The following table indicates the increase in the coronary output and the duration of this variation, depending on the doses.

Another assay concerns Escherichia coli. Description: Bacteriostatic activity by the method of streaks in gelose media (minimum inhibitory concentration), Escherichia coli. Format: cell-based. Particulars: Escherichia coli (gram -ve). As to the method:
as §1

The mark [2] stands for this setting: Oryctolagus cuniculus, 1 min, dose 3 μg/cm^3, aortic canal, 1 cm^3 for 1 minute, increase (+), read-out: Coronary output, Variations in %.
Where [3] appears, read: Oryctolagus cuniculus, 1 min, dose 10 μg/cm^3, aortic canal, 1 cm^3 for 1 minute, increase (+), read-out: Coronary output, Variations in %.
The mark [4] stands for this setting: Oryctolagus cuniculus, 1 min, dose 1 μg/cm^3, aortic canal, 1 cm^3 for 1 minute, increase (+), read-out: Coronary output, Variations in %.

Consider `Cc1cc(OCCN)c(C2CC3CCC2(C)C3(C)C)cc1C` (centres unmarked) [Example 1, 2-(2'-isobornyl-4',5'-dimethylphenoxy) ethylamine], for which the MIC stood at 5 µg/mL (≈ 16.6 µM) in the assay on Staphylococcus aureus and 7.5 µg/mL (≈ 24.9 µM) against Escherichia coli. In addition, the activation at 3 µg/mL in assay [1] (setting [2]) turned out to be 37%. Moreover, the activation at 10 µg/mL in assay [1] (setting [3]) was determined as 55%. Moreover, the “Coronary output, Duration in mins.” value in assay [1] (dose 3 μg/cm^3) and in assay [1] (dose 10 μg/cm^3) was 5 min throughout.

With `Cc1cc(OCC(O)CN)c(C2CC3CC2C(C)C3(C)C)cc1C` (centres unmarked) [Example 5, 3-(2'-isocamphyl-4',5'-dimethylphenoxy)-1-amino propan-2-ol], the MIC in the assay with Staphylococcus aureus and with Escherichia coli was 5 µg/mL (≈ 15.1 µM) throughout. For the same molecule, the activation at 1 µg/mL in assay [1] (setting [4]) worked out at 13%. Moreover, the activation at 3 µg/mL in assay [1] (setting [2]) amounted to 70%. Moreover, the “Coronary output, Duration in mins.” value in assay [1] (dose 1 μg/cm^3) is 2 min; in assay [1] (dose 3 μg/cm^3), more than 15 min.

With `Cc1cc(OCCN)c(C2CC3CCC2(C)C3(C)C)cc1Br` (centres unmarked) [Example 2, 2-(2'-isobornyl-4'-bromo-5'-methylphenoxy) ethylamine], the MIC against Staphylococcus aureus worked out at 5 µg/mL (≈ 13.6 µM); in the assay with Escherichia coli it was 10 µg/mL (≈ 27.3 µM). The activation at 1 µg/mL in assay [1] (setting [4]) amounted to 23%. Also, the activation at 3 µg/mL in assay [1] (setting [2]) worked out at 39%. The “Coronary output, Duration in mins.” value in assay [1] (dose 1 μg/cm^3) and in assay [1] (dose 3 μg/cm^3) was more than 15 min each time.

With `Cc1ccc(OCC(O)CN)c(C2CC3CC2C(C)C3(C)C)c1` (centres unmarked) [Example 12, 1-amino 3-(2'-isocamphyl-4'-methylphenoxy) propan-2-ol], the values for the MIC with Staphylococcus aureus and with Escherichia coli were 7.5 µg/mL (≈ 23.6 µM) and 5 µg/mL (≈ 15.7 µM), respectively. Further, the activation at 100 µg/mL in assay [1] (Oryctolagus cuniculus, 1 min, dose 100 μg/cm^3, aortic canal, 1 cm^3 for 1 minute, increase (+), read-out: Coronary output, Variations in %) is 31%. Further, the “Coronary output, Duration in mins.” value in assay [1] (dose 100 μg/cm^3) was determined as 4 min.

Turning to `CC1(C)C2CCC1(C)C(c1ccccc1OCC(O)CN)C2` (centres unmarked) [Example 8, 1-Amino 3-(2'-isobornylphenoxy) propan-2-ol], the minimum inhibitory concentration (MIC) against Staphylococcus aureus was found to be 20 µg/mL (≈ 65.9 µM); against Escherichia coli, 7.5 µg/mL (≈ 24.7 µM). Also, in assay [1] (setting [2]), the activation at 3 µg/mL was 24%. In addition, the activation at 10 µg/mL in assay [1] (setting [3]) came to 63%. Further, the “Coronary output, Duration in mins.” value in assay [1] (dose 3 μg/cm^3) was determined as 6 min; in assay [1] (dose 10 μg/cm^3), 12 min.

For the molecule `CC1(C)C2CCC1(C)C(c1cc(Br)ccc1OCCN)C2` (centres unmarked) [Example 3, 2-(2'-isobornyl-4'-bromophenoxy) ethylamine], the results for the MIC against Staphylococcus aureus and with Escherichia coli were 7.5 µg/mL (≈ 21.3 µM) and 5 µg/mL (≈ 14.2 µM), respectively. Moreover, the activation at 1 µg/mL in assay [1] (setting [4]) came out at 4%. The activation at 3 µg/mL in assay [1] (setting [2]) is 36%. Further, the figures for the “Coronary output, Duration in mins.” value in assay [1] (dose 1 μg/cm^3) and in assay [1] (dose 3 μg/cm^3) were 3 min and more than 15 min, respectively.

For the molecule `Cc1cc(OCC(O)CNC(C)C)c(C2CC3CCC2(C)C3(C)C)cc1C` (centres unmarked) [Example 11, 1-isopropylamino 3-(2'-isobornyl-4',5'-dimethylphenoxy) propan-2-ol], the activation at 3 µg/mL in assay [1] (setting [2]) amounted to 72%. In assay [1] (setting [3]), the activation at 10 µg/mL came out at 210%. The “Coronary output, Duration in mins.” value in assay [1] (dose 3 μg/cm^3) stood at 5 min; in assay [1] (dose 10 μg/cm^3), 12 min.

Molecule `Cc1cc(OCC(O)CNC(C)C)c(C2CC3CC2C(C)C3(C)C)cc1C` (centres unmarked) [Example 6, 3-(2'-isocamphyl-4',5'-dimethylphenoxy)-1-isopropylamino propan-2-ol] gave a minimal inhibitory concentration (MIC) in the assay with Staphylococcus aureus of 5 µg/mL (≈ 13.4 µM). For the same molecule, the activation at 3 µg/mL in assay [1] (setting [2]) turned out to be 36%. In addition, in assay [1] (setting [3]), the activation at 10 µg/mL was 66%. Also, the figures for the “Coronary output, Duration in mins.” value in assay [1] (dose 3 μg/cm^3) and in assay [1] (dose 10 μg/cm^3) were 15 min and 9 min, respectively.

For the molecule `Cc1cc(OCCN)c(C2CC3CCC2(C)C3(C)C)cc1Cl` (centres unmarked) [Example 10, 2-(2-isobornyl-4-chloro-5-methylphenoxy) ethylamine], the MIC against Staphylococcus aureus and against Escherichia coli was 7.5 µg/mL (≈ 23.3 µM) in each case. Further, in assay [1] (setting [4]), the activation at 1 µg/mL is 34%. For the same molecule, in assay [1] (setting [2]), the activation at 3 µg/mL was determined as 60%. Further, the “Coronary output, Duration in mins.” value in assay [1] (dose 1 μg/cm^3) and in assay [1] (dose 3 μg/cm^3) was more than 15 min in each case.

On to `Cc1cc(OCCNCCO)c(C2CC3CCC2(C)C3(C)C)cc1C` (centres unmarked) [Example 7, N-hydroxyethyl-2-(2'-isobornyl-4',5'-dimethylphenoxy) ethylamine], for which the MIC in the assay on Staphylococcus aureus came to 10 µg/mL (≈ 28.9 µM); against Escherichia coli it was 30 µg/mL (≈ 86.8 µM). Further, the activation at 3 µg/mL in assay [1] (setting [2]) was found to be 51%. Also, in assay [1] (setting [3]), the activation at 10 µg/mL is 109%. Moreover, the “Coronary output, Duration in mins.” value in assay [1] (dose 3 μg/cm^3) and in assay [1] (dose 10 μg/cm^3) was more than 15 min each time.

Regarding `Cc1cc(OCC(O)CN)c(C2CC3CCC2(C)C3(C)C)cc1C` (centres unmarked) [Example 4, 3-(2'-isobornyl-4,5'-dimethylphenoxy)-1-amino propan-2-ol], the MIC against Staphylococcus aureus and in the assay with Escherichia coli was 5 µg/mL (≈ 15.1 µM) in each case. In assay [1] (setting [2]), the activation at 3 µg/mL stood at 127%. Also, the activation at 10 µg/mL in assay [1] (setting [3]) was found to be 140%. The “Coronary output, Duration in mins.” value was 15 min in assay [1] (dose 3 μg/cm^3) and 12 min in assay [1] (dose 10 μg/cm^3).

Take `CC(C)NCC(O)COc1ccccc1C1CC2CCC1(C)C2(C)C` (centres unmarked) [Example 9, 1-Isopropylamino 3-(2'-isobornylphenoxy) propan-2-ol]: the activation at 3 µg/mL in assay [1] (setting [2]) is 95%. The activation at 10 µg/mL in assay [1] (setting [3]) worked out at 102%. Besides, the “Coronary output, Duration in mins.” value in assay [1] (dose 3 μg/cm^3) and in assay [1] (dose 10 μg/cm^3) was 4 min in each case.
